# Literature values in US9945862B2, “Biomarkers for predicting and assessing responsiveness of thyroid and kidney cancer subjects to lenvatinib compounds” (Eisai R&D Management Co., Ltd., priority 2011, dated 2018).
# Tested on: xenograft models of various tumors
# Settings: by inhibiting angiogenesis; cited from earlier work
compound,measurement,value
"COc1cc2nccc(Oc3ccc(NC(=O)NC4CC4)c(Cl)c3)c2cc1C(N)=O [Lenvatinib, 4-(3-chloro-4(cyclopropylaminocarbonyl)aminophenoxy)-7-methoxy-6-quinolinecarboxamide]",Anti-tumor effect,potent anti-tumor effects
